Data as given in the supplement of paper PMC11061612.

Legend:
MK-2206 = compound: NC1(c2ccc(-c3nc4ccn5c(=O)[nH]nc5c4cc3-c3ccccc3)cc2)CCC1 [MK-2206]; conditions: max 10 µM
Method in brief: (§1)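 Cancer cell lines were seeded into 1536-well plates in 7.5 μl medium (DMEM/F12 or RPMI, 10% FBS), held 24 hours at 37°C and 5% CO2, and dosed for 72 hours with final DMSO typically 0.2%. Luminescence from CellTiter-Glo 2.0, scaled between blank-well and DMSO-well means, served as viability. The single-agent IC50 was obtained from dose-response fits with a non-linear mixed effects model, each fit being a two-parameter logistic curve.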

AZD2811 = compound: CCN(CCO)CCCOc1ccc2c(Nc3cc(CC(=O)Nc4cccc(F)c4)[nH]n3)ncnc2c1 [AZD2811]; conditions: max 1 µM
Method in brief: as §1

AZD5991 = compound: Cc1c2c(nn1C)CSCc1cc(n(C)n1)CSc1cc(c3ccccc3c1)OCCCc1c(C(=O)O)n(C)c3c-2c(Cl)ccc13 [AZD5991]; conditions: max 1 µM
Method in brief: as §1

Gefitinib = compound: COc1cc2ncnc(Nc3ccc(F)c(Cl)c3)c2cc1OCCCN1CCOCC1 [Gefitinib]; conditions: max 10 µM
Method in brief: as §1

AZD5153 = compound: COc1nnc2ccc(N3CCC(c4ccc(OCCN5CCN(C)C(=O)[C@H]5C)cc4)CC3)nn12 [AZD5153]; conditions: max 1 µM
Method in brief: as §1

SN-38 = compound: CCc1c2c(nc3ccc(O)cc13)-c1cc3c(c(=O)n1C2)COC(=O)[C@]3(O)CC [SN-38]; conditions: max 0.3 µM
Method in brief: as §1

Lapatinib = compound: CS(=O)(=O)CCNCc1ccc(-c2ccc3ncnc(Nc4ccc(OCc5cccc(F)c5)c(Cl)c4)c3c2)o1 [Lapatinib]; conditions: max 10 µM
Method in brief: as §1

Prexasertib = compound: COc1cccc(OCCCN)c1-c1cc(Nc2cnc(C#N)cn2)n[nH]1 [Prexasertib]; conditions: max 1 µM
Method in brief: as §1

Doxorubicin = compound: COc1cccc2c1C(=O)c1c(O)c3c(c(O)c1C2=O)C[C@@](O)(C(=O)CO)C[C@@H]3O[C@H]1C[C@H](N)[C@H](O)[C@H](C)O1 [Doxorubicin]; conditions: max 1 µM
Method in brief: as §1

AZD7648 = compound: Cc1cc2ncnn2cc1Nc1ncc2c(n1)n(C1CCOCC1)c(=O)n2C [AZD7648]; conditions: max 10 µM
Method in brief: as §1

5-Fluorouracil = compound: O=c1[nH]cc(F)c(=O)[nH]1 [5-Fluorouracil]; conditions: max 20 µM
Method in brief: as §1

SRA737 = compound: N#Cc1cnc(Nc2cc(NC[C@H]3CNCCO3)c(C(F)(F)F)cn2)cn1 [SRA737]; conditions: max 10 µM
Method in brief: as §1

[1] = compound: O=C(Nc1ccc2[nH]nc(-c3ccncc3)c2c1)[C@@H]1CCN(CC(=O)N2CCN(c3ccc(-c4ncccn4)cc3)CC2)C1; conditions: max 5 µM
Method in brief: as §1

Venetoclax = compound: CC1(C)CCC(CN2CCN(c3ccc(C(=O)NS(=O)(=O)c4ccc(NCC5CCOCC5)c([N+](=O)[O-])c4)c(Oc4cnc5[nH]ccc5c4)c3)CC2)=C(c2ccc(Cl)cc2)C1 [Venetoclax]; conditions: max 1 µM
Method in brief: as §1

Dasatinib = compound: CC1=C(C(=CC=C1)Cl)NC(=O)C2=CN=C(S2)NC3=CC(=NC(=N3)C)N4CCN(CC4)CCO [Dasatinib]; conditions: max 2 µM
Method in brief: as §1

Crizotinib = compound: C[C@@H](Oc1cc(-c2cnn(C3CCNCC3)c2)cnc1N)c1c(Cl)ccc(F)c1Cl [Crizotinib]; conditions: max 10 µM
Method in brief: as §1

Paclitaxel = compound: CC(=O)O[C@H]1C(=O)[C@@]2(C)[C@H]([C@H](OC(=O)c3ccccc3)[C@]3(O)C[C@H](OC(=O)[C@H](O)[C@@H](NC(=O)c4ccccc4)c4ccccc4)C(C)=C1C3(C)C)[C@]1(OC(C)=O)CO[C@@H]1C[C@@H]2O [Paclitaxel]; conditions: max 3 µM
Method in brief: as §1

AZD6738 = compound: C[C@@H]1COCCN1C2=NC(=NC(=C2)C3(CC3)[S@](=N)(=O)C)C4=C5C=CNC5=NC=C4 [AZD6738]; conditions: max 10 µM
Method in brief: as §1

Taselisib = compound: Cc1nc(-c2cn3c(n2)-c2ccc(-c4cnn(C(C)(C)C(N)=O)c4)cc2OCC3)n(C(C)C)n1 [Taselisib]; conditions: max 10 µM
Method in brief: as §1

Etoposide = compound: COc1cc([C@@H]2c3cc4c(cc3[C@@H](O[C@@H]3O[C@@H]5CO[C@@H](C)O[C@H]5[C@H](O)[C@H]3O)[C@H]3COC(=O)[C@H]23)OCO4)cc(OC)c1O [Etoposide]; conditions: max 10 µM
Method in brief: as §1

AZD4320 = compound: CN(CC[C@H](CSC1=CC=CC=C1)NC2=C(C=C(C=C2)S(=O)(=O)NC(=O)C3=CC=C(C=C3)N4CCC(CC4)[C@H](C5=CC=CC=C5C6=CC=C(C=C6)Cl)O)S(=O)(=O)C(F)(F)F)CCO [AZD4320]; conditions: max 1 µM
Method in brief: as §1

AZD0156 = compound: CN(C)CCCOc1ccc(-c2ccc3ncc4c(c3c2)n(C2CCOCC2)c(=O)n4C)cn1 [AZD0156]; conditions: max 3 µM
Method in brief: as §1

Savolitinib = compound: C[C@@H](c1ccc2nccn2c1)n1nnc2ncc(-c3cnn(C)c3)nc21 [Savolitinib]; conditions: max 1 µM
Method in brief: as §1

Selumetinib = compound: Cn1cnc2c(F)c(Nc3ccc(Br)cc3Cl)c(C(=O)NOCCO)cc21 [Selumetinib]; conditions: max 10 µM
Method in brief: as §1

AZD5363 = compound: C1CN(CCC1(C(=O)N[C@@H](CCO)C2=CC=C(C=C2)Cl)N)C3=NC=NC4=C3C=CN4 [AZD5363]; conditions: max 10 µM
Method in brief: as §1

Alisertib = compound: COc1cc(Nc2ncc3c(n2)-c2ccc(Cl)cc2C(c2c(F)cccc2OC)=NC3)ccc1C(=O)O [Alisertib]; conditions: max 10 µM
Method in brief: as §1

SG3199 = compound: CC1=CN2[C@@H](C1)C=NC3=CC(=C(C=C3C2=O)OC)OCCCCCOC4=C(C=C5C(=C4)N=C[C@@H]6CC(=CN6C5=O)C)OC [SG3199]; conditions: max 0.001 µM
Method in brief: as §1

AZD1390 = compound: CC(C)n1c(=O)n(C)c2cnc3cc(F)c(-c4ccc(OCCCN5CCCCC5)nc4)cc3c21 [AZD1390]; conditions: max 0.3 µM
Method in brief: as §1

Trametinib = compound: CC(=O)Nc1cccc(-n2c(=O)n(C3CC3)c(=O)c3c(Nc4ccc(I)cc4F)n(C)c(=O)c(C)c32)c1 [Trametinib]; conditions: max 1 µM
Method in brief: as §1

Palbociclib = compound: CC(=O)c1c(C)c2cnc(Nc3ccc(N4CCNCC4)cn3)nc2n(C2CCCC2)c1=O [Palbociclib]; conditions: max 10 µM
Method in brief: as §1

AZD8186 = compound: C[C@@H](Nc1cc(F)cc(F)c1)c1cc(C(=O)N(C)C)cc2c(=O)cc(N3CCOCC3)oc12 [AZD8186]; conditions: max 10 µM
Method in brief: as §1

Carboplatin = compound: C1CC(C1)(C(=O)[O-])C(=O)[O-].N.N.[Pt+2] [Carboplatin]; conditions: max 10 µM
Method in brief: as §1

AZD1775 = compound: C=CCn1c(=O)c2cnc(Nc3ccc(N4CCN(C)CC4)cc3)nc2n1-c1cccc(C(C)(C)O)n1 [AZD1775]; conditions: max 3 µM
Method in brief: as §1

Olaparib = compound: O=C(c1cc(Cc2n[nH]c(=O)c3ccccc23)ccc1F)N1CCN(C(=O)C2CC2)CC1 [Olaparib]; conditions: max 10 µM
Method in brief: as §1

KP-3 (Pancreatic Carcinoma)
IC50, cell viability 72 h (MK-2206): > 10 µM | IC50, cell viability 72 h (AZD2811): > 1 µM | IC50, cell viability 72 h (AZD5991): > 1 µM | IC50, cell viability 72 h (Gefitinib): > 10 µM | IC50, cell viability 72 h (AZD5153): > 1 µM | IC50, cell viability 72 h (SN-38): > 0.3 µM | IC50, cell viability 72 h (Lapatinib): > 10 µM | IC50, cell viability 72 h (Prexasertib): > 1 µM | IC50, cell viability 72 h (Doxorubicin): > 1 µM | IC50, cell viability 72 h (AZD7648): > 10 µM | IC50, cell viability 72 h (5-Fluorouracil): > 20 µM | IC50, cell viability 72 h (SRA737): > 10 µM | IC50, cell viability 72 h [1]: > 5 µM | IC50, cell viability 72 h (Venetoclax): > 1 µM | IC50, cell viability 72 h (Dasatinib): > 2 µM | IC50, cell viability 72 h (Crizotinib): > 10 µM | IC50, cell viability 72 h (Paclitaxel): > 3 µM | IC50, cell viability 72 h (AZD6738): > 10 µM | IC50, cell viability 72 h (Taselisib): > 10 µM | IC50, cell viability 72 h (Etoposide): > 10 µM | IC50, cell viability 72 h (AZD4320): > 1 µM | IC50, cell viability 72 h (AZD0156): > 3 µM | IC50, cell viability 72 h (Savolitinib): > 1 µM | IC50, cell viability 72 h (Selumetinib): > 10 µM | IC50, cell viability 72 h (AZD5363): > 10 µM | IC50, cell viability 72 h (Alisertib): > 10 µM | IC50, cell viability 72 h (SG3199): > 0.001 µM | IC50, cell viability 72 h (AZD1390): > 0.3 µM | IC50, cell viability 72 h (Trametinib): > 1 µM | IC50, cell viability 72 h (Palbociclib): > 10 µM | IC50, cell viability 72 h (AZD8186): > 10 µM | IC50, cell viability 72 h (Carboplatin): > 10 µM | IC50, cell viability 72 h (AZD1775): > 3 µM | IC50, cell viability 72 h (Olaparib): > 10 µM
